Experimental data taken from ChEMBL document CHEMBL1135845, “N-(arylacetyl)-biphenylalanines as potent VLA-4 antagonists” (Bioorg Med Chem Lett, 2002).

Tests used:
Integrin alpha-4/beta-7 = molecular target: T1, Integrin alpha-4/beta-7 (Homo sapiens, UniProt P13612+P26010); assay: Inhibition of alpha4-beta7 integrin binding to radiolabeled vascular cell adhesion molecule-1 (VCAM-1) Ig fusion protein in human Jurkat cells; format: cell-based
T1 sequence (P13612 whole entry): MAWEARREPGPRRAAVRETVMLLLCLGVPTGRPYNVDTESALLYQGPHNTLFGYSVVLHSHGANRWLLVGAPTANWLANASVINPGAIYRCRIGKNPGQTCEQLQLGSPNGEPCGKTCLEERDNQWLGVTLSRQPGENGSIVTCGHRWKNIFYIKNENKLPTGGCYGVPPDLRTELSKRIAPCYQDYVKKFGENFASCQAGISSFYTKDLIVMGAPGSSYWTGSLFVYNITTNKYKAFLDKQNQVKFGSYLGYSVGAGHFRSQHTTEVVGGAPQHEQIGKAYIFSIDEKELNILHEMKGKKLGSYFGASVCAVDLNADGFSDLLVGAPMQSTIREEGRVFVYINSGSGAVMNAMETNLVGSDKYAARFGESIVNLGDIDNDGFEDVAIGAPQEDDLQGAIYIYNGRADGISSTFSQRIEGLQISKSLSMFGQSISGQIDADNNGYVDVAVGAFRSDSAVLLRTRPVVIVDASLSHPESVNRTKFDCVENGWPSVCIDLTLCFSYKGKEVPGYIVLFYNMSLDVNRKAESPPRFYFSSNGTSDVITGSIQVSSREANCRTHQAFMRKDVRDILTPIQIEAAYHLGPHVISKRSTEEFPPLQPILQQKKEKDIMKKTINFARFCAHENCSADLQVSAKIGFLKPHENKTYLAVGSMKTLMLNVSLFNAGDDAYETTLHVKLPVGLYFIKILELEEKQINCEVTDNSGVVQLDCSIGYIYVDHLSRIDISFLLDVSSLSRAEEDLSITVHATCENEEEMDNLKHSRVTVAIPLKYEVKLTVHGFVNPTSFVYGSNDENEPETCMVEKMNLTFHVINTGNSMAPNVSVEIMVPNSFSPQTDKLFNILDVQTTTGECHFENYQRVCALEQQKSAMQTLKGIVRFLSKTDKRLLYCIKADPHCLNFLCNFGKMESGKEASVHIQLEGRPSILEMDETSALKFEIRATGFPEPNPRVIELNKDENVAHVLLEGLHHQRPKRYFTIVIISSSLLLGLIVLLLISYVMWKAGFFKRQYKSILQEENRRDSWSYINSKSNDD
T1 sequence (P26010 whole entry): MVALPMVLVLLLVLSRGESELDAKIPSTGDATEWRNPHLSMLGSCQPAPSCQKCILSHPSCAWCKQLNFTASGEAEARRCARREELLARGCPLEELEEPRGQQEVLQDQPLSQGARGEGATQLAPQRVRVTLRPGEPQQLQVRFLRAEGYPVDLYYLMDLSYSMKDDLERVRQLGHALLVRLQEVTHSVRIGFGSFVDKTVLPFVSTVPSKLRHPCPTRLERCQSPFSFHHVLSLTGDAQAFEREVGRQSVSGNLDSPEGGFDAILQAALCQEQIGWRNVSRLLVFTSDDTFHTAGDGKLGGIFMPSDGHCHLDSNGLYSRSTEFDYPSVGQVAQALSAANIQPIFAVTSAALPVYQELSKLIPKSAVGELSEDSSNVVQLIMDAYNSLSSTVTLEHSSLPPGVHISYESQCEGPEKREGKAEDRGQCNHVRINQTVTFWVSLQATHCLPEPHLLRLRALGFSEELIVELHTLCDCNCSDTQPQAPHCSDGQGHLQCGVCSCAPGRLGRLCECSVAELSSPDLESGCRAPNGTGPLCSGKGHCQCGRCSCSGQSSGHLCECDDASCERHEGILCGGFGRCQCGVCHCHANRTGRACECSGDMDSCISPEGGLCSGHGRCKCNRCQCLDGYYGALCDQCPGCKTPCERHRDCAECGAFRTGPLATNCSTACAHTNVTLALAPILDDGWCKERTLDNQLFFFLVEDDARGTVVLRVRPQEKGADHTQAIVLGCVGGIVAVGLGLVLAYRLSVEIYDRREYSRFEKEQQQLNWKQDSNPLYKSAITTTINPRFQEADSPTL

[1] = Inhibition of VLA-4 binding to radiolabeled vascular cell adhesion molecule-1 (VCAM-1) Ig fusion protein in human Jurkat cells; format: cell-based
[2] = Plasma half-life was determined in Sprague-Dawley rats after 0-8 h administration of the compound; format: ADME, organism-based; settings: rat
[3] = Bioavailability in rat (Sprague-Dawley) (dose 1 mg/kg i.v. and 2 mg/kg p.o.); format: ADME, organism-based; settings: in vivo, po
[4] = Plasma clearance rate in Sprague-Dawley rats; format: ADME, organism-based; settings: rat, read-out: Clp

Compound | IC50 (Integrin alpha-4/beta-7) [nM] | IC50 [1] [nM] | half-life [2] [min] | bioavailability [3] [%] | clearance [4] [mL/min/kg]
COc1ccccc1-c1ccc(C[C@H](NC(=O)C2(c3cncc4ccccc34)CCCC2)C(=O)O)cc1 | 120 | 9.8 |  |  | 
COc1ccccc1-c1ccc(C[C@H](NC(=O)C2(c3cccnc3)CC=CC2)C(=O)O)cc1 | 16.7 | 0.9 |  |  | 
COc1ccccc1-c1ccc(C[C@H](NC(=O)C2(c3cccnc3)CCNCC2)C(=O)O)cc1 | 83 | 5.1 |  |  | 
COc1ccccc1-c1ccc(C[C@H](NC(=O)C2(c3cccnc3)CCC(C)C2)C(=O)O)cc1 (mixture of isomers) | 94 | 0.7 |  |  | 
COc1ccccc1-c1ccc(C[C@H](NC(=O)C2(c3cnccc3C)CCCC2)C(=O)O)cc1 | 22 | 1.2 | 12 | 1 | > 100
COc1ccccc1-c1ccc(C[C@H](NC(=O)C2(c3cccnc3)CCN(C)CC2)C(=O)O)cc1 | 51 | 1 |  |  | 
COc1ccccc1-c1ccc(C[C@H](NC(=O)C2(c3cccnc3)CCCC2)C(=O)O)cc1 | 9.9 | 0.5 | 66 | 35 | 24
COc1cc(C2(C(=O)N[C@@H](Cc3ccc(-c4ccccc4OC)cc3)C(=O)O)CCCC2)ccn1 | 15 | 0.8 |  |  | 
COc1ccccc1-c1ccc(C[C@H](NC(=O)C2(c3ccncc3)CCCC2)C(=O)O)cc1 | 49 | 0.7 | 150 | 17 | > 100
COc1ccccc1-c1ccc(C[C@H](NC(=O)C2(c3ccccc3)CCCCC2)C(=O)O)cc1 |  | 6.5 |  |  | 
COc1ccccc1-c1ccc(C[C@H](NC(=O)C2(c3ccc(O)nc3)CCCC2)C(=O)O)cc1 | 26 | 1.4 |  | 1 | > 100
COc1ccccc1-c1ccc(C[C@H](NC(=O)C2(c3ccccc3)CCCC2)C(=O)O)cc1 | 110 | 3.2 | 60 | 55 | 21.5
COc1ccccc1-c1ccc(C[C@H](NC(=O)C2(c3ccccc3)CC2)C(=O)O)cc1 |  | 90.7 |  |  | 
COc1ccccc1-c1ccc(C[C@H](NC(=O)Cc2ccc(Cl)cc2Cl)C(=O)O)cc1 |  | 16.6 |  |  | 
COc1ccccc1-c1ccc(C[C@H](NC(=O)C2(c3cncc(Br)c3)CCCC2)C(=O)O)cc1 | 165 | 1.6 |  |  | 
COc1ccccc1-c1ccc(C[C@H](NC(=O)C2(c3cccnc3C)CCCC2)C(=O)O)cc1 | 44 | 1.5 | 36 | 11 | > 100
COc1ccccc1-c1ccc(C[C@H](NC(=O)Cc2ccc(F)cc2)C(=O)O)cc1 |  | 129 |  |  | 
COc1ccccc1-c1ccc(C[C@H](NC(=O)Cc2ccncc2)C(=O)O)cc1 |  | 12.2 |  |  | 
COc1ccccc1-c1ccc(C[C@H](NC(=O)C2(c3cccnc3)CCCCC2)C(=O)O)cc1 | 158 | 1.4 | 24 | 6 | 82

More lines, now with the values ahead:

IC50 (Integrin alpha-4/beta-7) [nM] | IC50 [1] [nM] | half-life [2] [min] | bioavailability [3] [%] | clearance [4] [mL/min/kg] | Compound
 | 12.9 |  |  |  | COc1ccccc1-c1ccc(C[C@H](NC(=O)Cc2cccnc2)C(=O)O)cc1
 | 315 |  |  |  | COc1ccccc1-c1ccc(C[C@H](NC(=O)Cc2ccc(Cl)cc2)C(=O)O)cc1
 | 8 |  |  |  | COc1ccccc1-c1ccc(C[C@H](NC(=O)Cc2c(Cl)cccc2Cl)C(=O)O)cc1
30 | 0.7 |  |  |  | COc1ccccc1-c1ccc(C[C@H](NC(=O)C2(c3cccnc3)CCN(C(C)=O)CC2)C(=O)O)cc1
 | 607 |  |  |  | COc1ccccc1-c1ccc(C[C@H](NC(=O)Cc2ccc(-c3ccccc3)cc2)C(=O)O)cc1
 | 4.8 |  |  |  | COc1ccccc1-c1ccc(C[C@H](NC(=O)Cc2ccccc2[N+](=O)[O-])C(=O)O)cc1
94 | 0.5 |  | < 1 | > 100 | COc1ccccc1-c1ccc(C[C@H](NC(=O)C2(c3cccnc3)CCOCC2)C(=O)O)cc1
215 | 3 |  | < 1 | > 100 | COc1ccccc1-c1ccc(C[C@H](NC(=O)C2(c3ccccn3)CCCC2)C(=O)O)cc1
 | 145 |  |  |  | COc1ccccc1-c1ccc(C[C@H](NC(=O)Cc2cccc3ccccc23)C(=O)O)cc1
98 | 3.9 |  |  |  | COc1ccccc1-c1ccc(C[C@H](NC(=O)C2(c3cnc4ccccc4c3)CCCC2)C(=O)O)cc1
 | 36.8 |  |  |  | COc1ccccc1-c1ccc(C[C@H](NC(=O)Cc2ccccc2Cl)C(=O)O)cc1
 | 6.15 |  |  |  | COc1ccccc1-c1ccc(C[C@H](NC(=O)Cn2cnc(Cl)c2Cl)C(=O)O)cc1
 | 14.1 | 120 | 94 | 7.5 | COc1ccccc1-c1ccc(C[C@H](NC(=O)C(C)(C)c2ccccc2)C(=O)O)cc1
 | 328 |  |  |  | COc1ccccc1-c1ccc(C[C@H](NC(=O)Cc2cccc(Cl)c2)C(=O)O)cc1
180 | 3.2 |  |  |  | COc1ccccc1-c1ccc(C[C@H](NC(=O)C2(c3ccc[n+]([O-])c3)CCCC2)C(=O)O)cc1
 | 7.1 |  |  |  | COc1ccccc1-c1ccc(C[C@H](NC(=O)C(OC)c2ccccc2)C(=O)O)cc1 (some centres undefined)
 | 246 |  |  |  | COc1ccccc1-c1ccc(C[C@H](NC(=O)Cc2cccc(F)c2)C(=O)O)cc1
 | 801 |  |  |  | COc1ccccc1-c1ccc(C[C@H](NC(=O)Cc2ccc3ccccc3c2)C(=O)O)cc1
 | 262 |  |  |  | COc1ccccc1-c1ccc(C[C@H](NC(C)=O)C(=O)O)cc1
 | 15.8 |  |  |  | COc1ccccc1-c1ccc(C[C@H](NC(=O)Cc2ccccn2)C(=O)O)cc1
 | 264 |  |  |  | COc1ccccc1-c1ccc(C[C@H](NC(=O)Cc2ccccc2)C(=O)O)cc1
 | 64.9 |  |  |  | COc1ccccc1-c1ccc(C[C@H](NC(=O)Cc2cccc([N+](=O)[O-])c2)C(=O)O)cc1
36.3 | 1.3 | 18 | 12 | > 100 | COc1ccccc1-c1ccc(C[C@H](NC(=O)C2(c3ccc(C)nc3)CCCC2)C(=O)O)cc1
 | 14.4 |  |  |  | COc1ccccc1-c1ccc(C[C@H](NC(=O)Cn2cnnn2)C(=O)O)cc1
18 | 2.1 |  |  |  | COc1ccccc1-c1ccc(C[C@H](NC(=O)C2(c3ccc(=O)n(C)c3)CCCC2)C(=O)O)cc1
 | 30.9 |  |  |  | COc1ccccc1-c1ccc(C[C@H](NC(=O)Cc2cccc(C)c2)C(=O)O)cc1
33 | 0.5 |  |  |  | COc1ccccc1-c1ccc(C[C@H](NC(=O)C2(c3ccnnc3)CCCC2)C(=O)O)cc1
 | 44.9 |  |  |  | COc1ccccc1-c1ccc(C[C@H](NC(=O)Cc2ccc([N+](=O)[O-])cc2)C(=O)O)cc1
